14 compounds from patent publication US12139477B2, “Compounds, salts thereof and methods for treatment of diseases” (ACADIA PHARMACEUTICALS INC., priority 2017, dated 2024) can be followed below.

Chain of 5HT2A (P28223 whole entry): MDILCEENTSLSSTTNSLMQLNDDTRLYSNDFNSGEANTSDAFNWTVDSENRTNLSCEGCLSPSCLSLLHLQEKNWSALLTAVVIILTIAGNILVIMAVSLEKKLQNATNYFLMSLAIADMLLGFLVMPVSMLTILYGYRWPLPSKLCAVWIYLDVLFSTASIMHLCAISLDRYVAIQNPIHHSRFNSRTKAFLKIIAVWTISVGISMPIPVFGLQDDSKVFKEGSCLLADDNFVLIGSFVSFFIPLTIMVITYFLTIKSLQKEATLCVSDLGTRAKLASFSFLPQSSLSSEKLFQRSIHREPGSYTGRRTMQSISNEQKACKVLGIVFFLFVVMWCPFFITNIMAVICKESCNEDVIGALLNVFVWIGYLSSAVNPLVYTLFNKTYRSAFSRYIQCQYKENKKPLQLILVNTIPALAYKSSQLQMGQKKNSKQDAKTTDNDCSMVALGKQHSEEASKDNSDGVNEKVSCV

One test addresses 5HT2A (Homo sapiens, UniProt P28223). Kind of test: Receptor Selection and Amplification (R-SAT) functional assay. Type of test: cell-based. Particulars: NIH3T3 cells; Ki from IC50 by Cheng and Prussoff. Also on record: expressed in transfected cells; host or cells: NIH3T3 cells, pSI mammalian expression vector. An excerpt: Receptor Selection and Amplification (R-SAT) Assays. […] The IC50 determined in the RSAT assay was converted into a Ki value using the method of Cheng and Prussoff, Biochem Pharmacol., 1973 Dec. 1; 22(23):3099-108. pKi is the negative of the log(Ki).
Take `COc1ccc(CNC(=O)N(Cc2ccc(F)cc2F)C2CCNCC2)cc1.COc1ccc(CNC(=O)N(Cc2ccc(F)cc2F)C2CCNCC2)cc1.O=C(O)C(O)C(O)C(=O)O` [Example 126, 1-[(2,4-difluorophenyl)methyl]-3-[(4-methoxyphenyl)methyl]-1-(piperidin-4-yl)urea; Hemitartrate]: the “5-HT2a (pKi) (R-SAT)” value was found to be 8.1.

The same test, now with this note: NIH3T3 cells; Ki from IC50 by Cheng and Prussoff; read-out: 5-HT2a (pKi) (R-SAT) (converted).
Turning to `CC(C)Oc1ccc(CNC(=O)N(Cc2ccc(Cl)cc2Cl)C2CCNCC2)cc1` [Example 108, 1-[(2,4-dichlorophenyl)methyl]-1-(piperidin-4-yl)-3-{[4-(propan-2-yloxy)phenyl]methyl}urea; Trifluoroacetic Acid], the Ki is 79.4 nM.
With `CN1CCC(N(Cc2ccc(F)cc2F)C(=O)NCc2ccc3c(c2)OCO3)CC1` [Example 128, 3-[(2H-1,3-benzodioxol-5-yl)methyl]-1-[(2,4-difluorophenyl)methyl]-1-(1-methylpiperidin-4-yl)urea], the Ki was 7.94 nM.
Regarding `Cc1cc(F)ccc1CN(C(=O)NCc1ccc(OCC(C)C)cc1)C1CCN(C)CC1` [Example 104, 1-[(4-fluoro-2-methylphenyl)methyl]-1-(1-methylpiperidin-4-yl)-3-{[4-(2-methylpropoxy)phenyl]methyl}urea; Trifluoroacetic Acid], the Ki was 39.8 nM.
With `CC(C)COc1ccc(CNC(=O)N(Cc2ccc(Cl)cc2F)C2CCNCC2)cc1` [Example 134, 3-[(4-chloro-2-fluorophenyl)methyl]-1-{[4-(2-methylpropoxy)phenyl]methyl}-3-(piperidin-4-yl)urea; Trifluoroacetic Acid], the Ki is 3.98 nM.
Take `CC(C)COc1ccc(CNC(=O)N(Cc2ccc(C(F)(F)F)cc2Cl)C2CCN(C)CC2)cc1` [Example 67]: the Ki is 79.4 nM.
`CC(C)Oc1ccc(CNC(=O)N(Cc2ccc(F)c(F)c2F)C2CCN(C)CC2)cc1` [Example 135, 1-(1-methylpiperidin-4-yl)-3-{[4-(propan-2-yloxy)phenyl]methyl}-1-[(2,3,4-trifluorophenyl)methyl]urea; Trifluoroacetic Acid]: the Ki was 15.8 nM.
As to `CC(C)COc1ccc(CNC(=O)N(Cc2ccc(F)cc2Cl)C2CCNCC2)cc1` [Example 109, 1-[(2-chloro-4-fluorophenyl)methyl]-3-{[4-(2-methylpropoxy)phenyl]methyl}-1-(piperidin-4-yl)urea; Trifluoroacetic Acid], the Ki was 25.1 nM.
On to `CC(C)Oc1ccc(CNC(=O)N(Cc2ccc(F)cc2F)C2CCCN(C)CC2)cc1` (centres unmarked) [Example 78, 1-[(2,4-difluorophenyl)methyl]-1-(1-methylazepan-4-yl)-3-{[4-(propan-2-yloxy)phenyl]methyl}urea; Trifluoroacetic Acid], for which the Ki was 6.31 nM.
`CN1CCC(N(Cc2ccc(F)cc2F)C(=O)NCc2ccc([N+](=O)[O-])cc2F)CC1` [Example 97, 1-[(2,4-difluorophenyl)methyl]-3-[(2-fluoro-4-nitrophenyl)methyl]-1-(1-methylpiperidin-4-yl)urea; Trifluoroacetic Acid]: the Ki is 39.8 nM.
With `CC(C)COc1ccc(CNC(=O)N(Cc2c(F)cccc2F)C2CCN(C)CC2)cc1` [Example 72], the Ki was 15.8 nM.
On the same count and under the same terms, then `CN1CCC(N(Cc2ccc(F)cc2F)C(=O)NCc2ccc3c(c2)OC(C)(C)C3)CC1` [Example 59], with 15.8 nM; and `CC(C)Oc1ccc(CNC(=O)N(Cc2ccc(F)cc2F)[C@H]2C[C@H]3CC[C@@H](C2)N3C)cc1` [Example 84, 3-[(2,4-difluorophenyl)methyl]-3-[(1R,3R,5S)-8-methyl-8-azabicyclo[3.2.1]octan-3-yl]-1-{[4-(propan-2-yloxy)phenyl]methyl}urea; Trifluoroacetic Acid], with 50.1 nM.
On the same count and under the same terms, to `CC(C)COc1ccc(CNC(=O)N(Cc2ccc(F)cc2OCc2ccccc2)C2CCN(C)CC2)cc1` [Example 13b, 1-{[2-(benzyloxy)-4-fluorophenyl]methyl}-1-(1-methylpiperidin-4-yl)-3-{[4-(2-methylpropoxy)phenyl]methyl}urea] belongs 63.1 nM.
